Reference: patent US10138233B2, “Imidazole compounds as modulators of FSHR and uses thereof” (Merck Patent GmbH, priority 2013, dated 2018)

Experiments:
[1] = molecular target: T1, follicle-stimulating hormone (FSH) receptor (Rattus norvegicus, UniProt P20395); experiment: Rat Granulosa EC50 FSH (Assay B); type: cell-based; details: rat granulosa cells, per Yanofsky et al. 2006
T1 construct: Rat Granulosa EC50 FSH (Assay B); endogenous in cells; host or cells: rat granulosa cells
T1 sequence (P20395 18-692): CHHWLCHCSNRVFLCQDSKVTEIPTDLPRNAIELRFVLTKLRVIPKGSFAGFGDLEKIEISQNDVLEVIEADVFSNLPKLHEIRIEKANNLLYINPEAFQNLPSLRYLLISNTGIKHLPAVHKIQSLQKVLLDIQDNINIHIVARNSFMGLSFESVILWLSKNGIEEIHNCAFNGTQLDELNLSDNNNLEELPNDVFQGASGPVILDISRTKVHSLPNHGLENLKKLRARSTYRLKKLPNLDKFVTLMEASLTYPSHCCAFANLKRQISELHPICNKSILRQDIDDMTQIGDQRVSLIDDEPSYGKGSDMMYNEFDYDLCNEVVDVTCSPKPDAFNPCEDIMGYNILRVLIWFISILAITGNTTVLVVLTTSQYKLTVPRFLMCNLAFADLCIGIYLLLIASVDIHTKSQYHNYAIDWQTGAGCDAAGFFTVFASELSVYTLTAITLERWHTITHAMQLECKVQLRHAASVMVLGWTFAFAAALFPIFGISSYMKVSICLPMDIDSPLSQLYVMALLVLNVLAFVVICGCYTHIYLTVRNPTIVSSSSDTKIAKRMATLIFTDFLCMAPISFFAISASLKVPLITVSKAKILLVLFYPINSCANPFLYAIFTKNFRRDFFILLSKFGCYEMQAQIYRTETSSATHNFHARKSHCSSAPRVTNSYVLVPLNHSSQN

FSHR = molecular target: T2, FSHR (Homo sapiens, UniProt P23945); experiment: EC50 of cyclic AMP production in CHO FSHR cells + EC20 FSH (Assay A); type: cell-based; details: CHO-FSHR-LUC cells, in presence of EC20 FSH, cAMP HTRF, 1 h 37° C.
T2 construct: expressed in transfected cells; host or cells: CHO cells, clone Cho-FSHR-LUC-1-1-43
T2 sequence (P23945 18-695): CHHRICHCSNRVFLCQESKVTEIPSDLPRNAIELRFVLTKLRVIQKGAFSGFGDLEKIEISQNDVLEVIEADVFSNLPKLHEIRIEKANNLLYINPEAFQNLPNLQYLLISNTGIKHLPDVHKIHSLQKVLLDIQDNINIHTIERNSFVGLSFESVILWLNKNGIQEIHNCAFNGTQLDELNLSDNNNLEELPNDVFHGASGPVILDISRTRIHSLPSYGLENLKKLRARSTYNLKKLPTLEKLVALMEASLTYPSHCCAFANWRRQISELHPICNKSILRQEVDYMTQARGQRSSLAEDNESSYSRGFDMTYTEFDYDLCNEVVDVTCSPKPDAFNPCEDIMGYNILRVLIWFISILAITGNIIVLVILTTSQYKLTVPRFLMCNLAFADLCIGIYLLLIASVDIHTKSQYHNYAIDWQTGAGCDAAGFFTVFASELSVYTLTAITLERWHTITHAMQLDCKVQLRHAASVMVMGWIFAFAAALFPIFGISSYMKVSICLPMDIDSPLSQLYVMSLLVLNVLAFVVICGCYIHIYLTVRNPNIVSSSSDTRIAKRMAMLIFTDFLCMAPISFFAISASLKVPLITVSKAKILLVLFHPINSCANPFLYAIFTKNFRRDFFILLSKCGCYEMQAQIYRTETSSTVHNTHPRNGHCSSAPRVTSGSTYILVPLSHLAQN

Row | EC50 [1] [nM] | EC50 (FSHR) [nM] | Compound
1 | 100 to 1000 | < 100 | COc1cc2c(cc1OC(C)C)-n1c(-c3cccs3)nc(C(=O)N3CCOCC3(C)C)c1CO2 [Compound 139, (3,3-Dimethyl-morpholin-4-yl)-(8-isopropoxy-7-methoxy-1-thiophen-2-yl-4H-5-oxa-2,9b-diaza-cyclopenta[a]naphthalen-3-yl)-methanone]
2 | > 5000 | < 100 | COc1cc2c(cc1-c1ccn(C)c1)-n1c(-c3cccs3)nc(C(=O)N3CCOCC3(C)C)c1CC2 [Compound 143, (3,3-Dimethyl-morpholin-4-yl)-[7-methoxy-8-(1-methyl-1H-pyrrol-3-yl)-1-thiophen-2-yl-4,5-dihydro-imidazo[1,5-a]quinolin-3-yl]-methanone]
3 | 1000 to 5000 | 100 to 1000 | COc1cc2c(cc1-c1ccn(C)n1)-n1c(-c3cccc(Cl)c3)nc(C(=O)N3CCOCC3(C)C)c1CC2 [Compound 148, (1-(3-chlorophenyl)-7-methoxy-8-(1-methyl-1H-pyrazol-3-yl)-4,5-dihydroimidazo[1,5-a]quinolin-3-yl)(3,3-dimethylmorpholino)methanone]
4 | 1000 to 5000 | < 100 | [2H]C([2H])([2H])n1cc(-c2cc3c(cc2OC)CCc2c(C(=O)N4CCOCC4(C)C)nc(-c4cccn4C)n2-3)cn1 [Compound 149, (3,3-dimethylmorpholino)(7-methoxy-8-(1-methyl-1H pyrazol-4-yl)-1-(1-methyl-1H-pyrrol-2-yl)-4,5-dihydroimidazo[1,5-a]quinolin-3-yl)methanone]
